Values of other authors, collected in PMC7395068, “The evolution of strategies to minimise the risk of human drug-induced liver injury (DILI) in drug discovery and development” (Archives of Toxicology, 2020).
Where two headings read alike, the source gives them in different places.

Key:
[1] = ref Chen 2016; cited from earlier work
[2] = test system: HepG2 C3A spheroid, BSEP, Glu/Gal in HepG2 cells, bioactivation; details: cited from earlier work
[3] = cited from earlier work
[4] = test system: primary human hepatocytes, NIH3T3 fibroblasts, BSEP, CYP3A4; details: In vitro Assay; ref Schadt 2015; cited from earlier work
HepG2 cells [5] = details: In vitro Assay; ref Persson 2013; cited from earlier work
PHH spheroids = details: cited from earlier work; for hLiMTs ATP <20 x Cmax: In vitro Assay, ref Vorrink 2018
[6] = test system: THLE-Null and THLE-3A4 cells; details: In vitro Assay; ref Gustafsson 2014; cited from earlier work
[7] = test system: HepG2 cells, primary human hepatocytes; details: In vitro Assay; ref Garside 2014; cited from earlier work
[8] = test system: isolated mouse liver mitochondria; details: In vitro Assay; ref Porceddu 2012; cited from earlier work
rBsep = details: In vitro Assay; ref Dawson 2012; cited from earlier work
HepG2 cells [9] = details: In vitro Assay; ref O'Brien 2006; cited from earlier work
human hepatocytes = details: In vitro Assay; ref Xu 2008; cited from earlier work
[10] = test system: THLE or HepG2 cells, isolated mitochondria, BSEP; details: In vitro Assay; ref Aleo 2019; cited from earlier work

Row | Compound | DILI +VE (5-8), DILI -VE (-4) [1] | DILI severity category [1] | Cluser analysis (HepG2 cells [5]) | Structural based (HCI) (HepG2 cells [5]) | hLiMTs ATP <20 x Cmax (PHH spheroids) | In vivo DILI ([3]; ref Dawson 2012) | In vivo DILI ([3]; ref Garside 2014) | In vivo DILI ([3]; ref Gustafsson 2014) | In vivo DILI ([3]; ref Persson 2013) | In vivo DILI ([3]; ref Vorrink 2018) | THLE-Null [6] | THLE-Null/3A4 [6] | Cluster 1-6 +VE Assay [7] | Inhibition of rBsep cutoff<1& cmax u>.2 (rBsep) | Inhibition of rBsep cutoff<3 (rBsep) | Structural based (HCI) (HepG2 cells [9]) | Structural based (HCI) (human hepatocytes) | In vivo DILI ([3]; ref Xu 2008) | other results
1 | O=C1[C@H](CC[C@H](O)c2ccc(F)cc2)[C@@H](c2ccc(O)cc2)N1c1ccc(F)cc1 [ezetimibe] | +VE | vLess-DILI-Concern | – | – | – | – | – | – | – | – | – | – | – | – | – | – | – | – | Bayesian Machine Learning ([2]; In vitro Assay, ref Williams 2019): -VE; In vivo DILI ([3]; ref Williams 2019): +VE
2 | Cc1c(N(C)C)c(=O)n(-c2ccccc2)n1C [aminopyrine] | – | – | – | – | – | – | – | – | – | – | – | – | – | – | – | – | – | – | Bayesian Machine Learning ([2]; ref Williams 2019): +VE
3 | CN(C)C(=O)Oc1ccc[n+](C)c1 [pyridostigmine] | – | – | – | – | – | – | – | – | – | – | – | – | – | – | – | – | – | – | Bayesian Machine Learning [2]: -VE
4 | CCCN(CCC)C(=O)Cc1c(-c2ccc(Cl)cc2)nc2ccc(Cl)cn12 [alpidem] | +VE | vMost-DILI-Concern | +VE | +VE | +VE (IC20 < 20 × Cmax.tot cut-off) | +VE | +VE | +VE | +VE | +VE | -VE | -VE | +VE | +VE | +VE | – | – | – | Cellular toxicity (3T3 cells) [4]: -VE; Combined Assay [4]: -VE; GSH adduct HML [4]: +VE; Hepatocyte cellular toxicity [4]: +VE; MitoTox 3T3 [4]: -VE; TDI CYP3A4 [4]: -VE; hBSEP inhibition [4]: +VE; In vivo DILI ([3]; […]): +VE; In vivo DILI ([3]; ref Porceddu 2012): +VE; In vivo DILI ([3]; ref Schadt 2015): +VE; in vitro data EC2<=1x Cmax [8]: +VE; in vitro data EC20<=2uM [8]: +VE
5 | CC(C)(Oc1ccc(CCNC(=O)c2ccc(Cl)cc2)cc1)C(=O)O [bezafibrate] | – | – | – | – | -VE | +VE | +VE | +VE | – | -VE | -VE | -VE | -VE | -VE | -VE | +VE | -VE | -VE | Cellular toxicity (3T3 cells) [4]: -VE; Combined Assay [4]: -VE; GSH adduct HML [4]: -VE; Hepatocyte cellular toxicity [4]: -VE; MitoTox 3T3 [4]: -VE; TDI CYP3A4 [4]: -VE; hBSEP inhibition [4]: -VE; In vivo DILI ([3]; ref O'Brien 2006): -VE; In vivo DILI ([3]; ref Schadt 2015): -VE
6 | CC(C)(C)NCC(O)c1ccc(O)c(CO)c1 (centres unmarked) [albuterol] | – | – | – | – | – | – | – | – | – | – | – | – | – | – | – | – | – | – | Partition Hybrid HRM Score [10]: -VE; Ro2 Hybrid HRM Score [10]: -VE; Bayesian Machine Learning ([2]; ref Williams 2019): -VE; In vivo DILI ([3]; ref Aleo 2019): -VE; In vivo DILI ([3]; ref Proctor 2017): -VE; In vivo DILI ([3]; ref Williams 2019): -VE
7 | CN1C[C@H](CNC(=O)OCc2ccccc2)C[C@@H]2c3cccc4c3c(cn4C)C[C@H]21 [metergoline] | – | – | – | – | – | – | – | – | – | – | – | – | – | – | – | – | – | – | Bayesian Machine Learning ([2]; ref Williams 2019): -VE
8 | Cc1ncc(CO)c(CO)c1O [pyridoxine] | -VE | vNo-DILI-Concern | -VE | -VE | -VE | -VE | -VE | -VE | -VE | -VE | -VE | -VE | -VE | -VE | -VE | +VE | -VE | -VE | In vivo DILI ([3]; ref O'Brien 2006): -VE
9 | CC(N/C(=N\C#N)Nc1ccncc1)C(C)(C)C (centres unmarked) [pinacidil] | – | – | -VE | -VE | -VE | – | – | – | – | – | -VE | -VE | +VE | -VE | +VE | -VE | -VE | – | In vivo DILI ([3]; in vivo): -VE
10 | NCCc1ccc(O)c(O)c1 [dopamine] | -VE | vNo-DILI-Concern | – | – | -VE | -VE | -VE | -VE | – | -VE | -VE | -VE | -VE | -VE | -VE | – | -VE | -VE | –
11 | O=C(OCC(O)CO)c1ccccc1Nc1ccnc2cc(Cl)ccc12 (centres unmarked) [glafenine] | +VE | vMost-DILI-Concern | – | – | -VE | +VE | +VE | +VE | – | +VE | -VE | +VE | +VE | +VE | +VE | – | -VE | +VE | In vivo DILI ([3]; […]): +VE
12 | CN1Cc2c(N)cccc2C(c2ccccc2)C1 (centres unmarked) [nomifensine] | +VE | vMost-DILI-Concern | -VE | -VE | +VE (IC20 < 20 × Cmax.tot cut-off) | +VE | +VE | +VE | +VE | +VE | -VE | – | -VE | -VE | – | -VE | -VE | +VE | Partition Hybrid HRM Score [10]: +VE; Ro2 Hybrid HRM Score [10]: -VE; In vivo DILI ([3]; ref Aleo 2019): +VE; In vivo DILI ([3]; ref O'Brien 2006): -VE
13 | CC(C)NNC(=O)c1ccncc1 [iproniazid, reference compound] | +VE | vMost-DILI-Concern | -VE | +VE | -VE | +VE | +VE | +VE | +VE | +VE | -VE | -VE | -VE | -VE | -VE | – | – | – | Partition Hybrid HRM Score [10]: -VE; Ro2 Hybrid HRM Score [10]: -VE; response of PHH spheroids at 5 × Cmax.tot (PHH spheroids; ATP, 14 days, not positive at higher concentrations, ref Vorrink et al. 2018): positive; In vivo DILI ([3]; […]): +VE; In vivo DILI ([3]; ref Aleo 2019): +VE
